Experimental data taken from ChEMBL document CHEMBL5500372, “Novel natural osthole-inspired amphiphiles as membrane targeting antibacterials against methicillin-resistant Staphylococcus aureus (MRSA)” (Eur J Med Chem, 2024).
Converted amounts (≈) assume the structure as drawn.

Experiments:
[1] = system: Staphylococcus aureus; test: Antibacterial activity against Staphylococcus aureus ATCC 29213 measured after 18 hrs by CLSI based broth microdilution method; assay type: functional
[2] = system: Staphylococcus aureus; test: Antibacterial activity against methicillin-resistant Staphylococcus aureus clinical isolate 16 measured after 18 hrs by CLSI based broth microdilution method; assay type: functional
[3] = system: Staphylococcus aureus; test: Antibacterial activity against methicillin-resistant Staphylococcus aureus clinical isolate 17 measured after 18 hrs by CLSI based broth microdilution method; assay type: functional
[4] = system: Staphylococcus aureus; test: Antibacterial activity against methicillin-resistant Staphylococcus aureus clinical isolate 11 measured after 18 hrs by CLSI based broth microdilution method; assay type: functional
[5] = system: Staphylococcus aureus; test: Antibacterial activity against methicillin-resistant Staphylococcus aureus clinical isolate 14 measured after 18 hrs by CLSI based broth microdilution method; assay type: functional
[6] = Selectivity index, ratio of HC50 for hemolytic activity in sheep erythrocyte assessed as hemolysis to MIC for antibacterial activity against Staphylococcus aureus ATCC 29213; assay type: toxicity; conditions: sheep erythrocytes, read-out: Selectivity Index
[7] = Hemolytic activity in sheep erythrocyte assessed as hemolysis incubated for 1 hr by absorbance based analysis; assay type: toxicity, cell-based, Ovis aries; conditions: sheep erythrocytes
[8] = system: Escherichia coli; test: Antibacterial activity against Escherichia coli ATCC 25922 measured after 18 hrs by CLSI based broth microdilution method; assay type: functional
[9] = system: Staphylococcus aureus; test: Antibacterial activity against methicillin-resistant Staphylococcus aureus clinical isolate 20 measured after 18 hrs by CLSI based broth microdilution method; assay type: functional
[10] = system: Staphylococcus aureus; test: Antibacterial activity against methicillin-resistant Staphylococcus aureus clinical isolate 21 measured after 18 hrs by CLSI based broth microdilution method; assay type: functional
[11] = system: Staphylococcus aureus; test: Antibacterial activity against methicillin-resistant Staphylococcus aureus clinical isolate 23 measured after 18 hrs by CLSI based broth microdilution method; assay type: functional
[12] = system: Staphylococcus aureus; test: Antibacterial activity against methicillin-resistant Staphylococcus aureus clinical isolate 22 measured after 18 hrs by CLSI based broth microdilution method; assay type: functional
[13] = system: Staphylococcus aureus; test: Antibacterial activity against methicillin-resistant Staphylococcus aureus clinical isolate 13 measured after 18 hrs by CLSI based broth microdilution method; assay type: functional
[14] = system: Staphylococcus aureus; test: Antibacterial activity against methicillin-resistant Staphylococcus aureus clinical isolate 12 measured after 18 hrs by CLSI based broth microdilution method; assay type: functional

Row | Structure (SMILES) | MIC [1] [µg/mL] | MIC [2] [µg/mL] | MIC [3] [µg/mL] | MIC [4] [µg/mL] | MIC [5] [µg/mL] | selectivity ratio [6] | HC50 at 1 h [7] [µg/mL] | MIC [8] [µg/mL] | MIC [9] [µg/mL] | MIC [10] [µg/mL] | MIC [11] [µg/mL] | MIC [12] [µg/mL] | MIC [13] [µg/mL] | MIC [14] [µg/mL]
1 | CCCCCCNC(=O)C[N+](C)(C)CCCCOc1ccc2ccc(=O)oc2c1CC=C(C)C.[Br-] | 4 | 2 | 4 | 4 | 4 | > 320 | > 1280 | 64 | 4 | 4 | 2 | 4 | 4 | 8
2 | COc1ccc2ccc(=O)oc2c1CC=C(C)C [OSTHOLE] | > 64 | 64 (≈ 262 µM) | 64 (≈ 262 µM) | > 64 | 64 (≈ 262 µM) | – | > 80 | > 64 | 64 (≈ 262 µM) | > 64 | > 64 | 64 (≈ 262 µM) | > 64 | 64 (≈ 262 µM)
3 | CCCCCNC(=O)C[N+](C)(C)CCCCOc1ccc2ccc(=O)oc2c1CC=C(C)C.[Br-] | 8 | 8 | 8 | 8 | 8 | > 160 | > 1280 | 64 | 8 | 8 | 8 | 8 | 16 | 16
4 | C[C@@H](O)[C@H]1C(=O)N2C(C(=O)O)=C(S[C@@H]3CN[C@H](C(=O)N(C)C)C3)[C@H](C)[C@H]12 [MEROPENEM] | – | – | – | – | – | – | – | 0.062 (≈ 0.162 µM) | – | – | – | – | – | –
5 | CC(C)=CCc1c(OCCCCC[N+](C)(C)CC(=O)N(CC(C)C)CC(C)C)ccc2ccc(=O)oc12.[Br-] | 2 | 1 | 1 | 1 | 1 | 480 | 960 | 128 | 1 | 1 | 1 | 1 | 2 | 2
6 | CCCN(CCC)C(=O)C[N+](C)(C)CCCCCOc1ccc2ccc(=O)oc2c1CC=C(C)C.[Br-] | 8 | 8 | 8 | 8 | 8 | 97.4 | 779 | 128 | 8 | 8 | 8 | 4 | 8 | 16
7 | CCCCCCNC(=O)C[N+](C)(C)CCCOc1ccc2ccc(=O)oc2c1CC=C(C)C.[Br-] | 4 | 4 | 4 | 4 | 4 | > 320 | > 1280 | 32 | 4 | 4 | 4 | 4 | 8 | 8
8 | CCCNC(=O)C[N+](C)(C)CCCCCOc1ccc2ccc(=O)oc2c1CC=C(C)C.[Br-] | 32 | 16 | 32 | 32 | 16 | 35.8 | 1140 | 128 | 32 | 32 | 32 | 32 | 32 | 32
9 | CCCCN(CCCC)C(=O)C[N+](C)(C)CCCCCOc1ccc2ccc(=O)oc2c1CC=C(C)C.[Br-] | 1 | 1 | 1 | 1 | 1 | 989 | 989 | 128 | 1 | 1 | 1 | 1 | 2 | 2
10 | CCCNC(=O)C[N+](C)(C)CCCOc1ccc2ccc(=O)oc2c1CC=C(C)C.[Br-] | 128 | 128 | 128 | 128 | 128 | > 10 | > 1280 | 128 | 128 | 128 | 128 | 128 | 128 | 64
11 | CCCCN(CCCC)C(=O)C[N+](C)(C)CCCOc1ccc2ccc(=O)oc2c1CC=C(C)C.[Br-] | 4 | 4 | 8 | 4 | 4 | 272 | 1090 | 128 | 4 | 4 | 4 | 4 | 4 | 8
12 | CCCN(CCC)C(=O)C[N+](C)(C)CCCOc1ccc2ccc(=O)oc2c1CC=C(C)C.[Br-] | 32 | 32 | 16 | 32 | 16 | > 40 | > 1280 | 128 | 32 | 32 | 32 | 32 | 32 | 32
13 | CC(C)=CCc1c(OCCC[N+](C)(C)CC(=O)N(CC(C)C)CC(C)C)ccc2ccc(=O)oc12.[Br-] | 4 | 4 | 4 | 4 | 4 | > 320 | > 1280 | 128 | 4 | 4 | 4 | 4 | 4 | 8
14 | CCCCNC(=O)C[N+](C)(C)CCCOc1ccc2ccc(=O)oc2c1CC=C(C)C.[Br-] | 32 | 32 | 32 | 64 | 32 | > 40 | > 1280 | 128 | 64 | 32 | 32 | 32 | 32 | 64
15 | CCCN(CCC)C(=O)C[N+](C)(C)CCCCOc1ccc2ccc(=O)oc2c1CC=C(C)C.[Br-] | 16 | 16 | 16 | 16 | 16 | > 80 | > 1280 | > 128 | 32 | 16 | 16 | 16 | 32 | 32
16 | CCCCCNC(=O)C[N+](C)(C)CCCOc1ccc2ccc(=O)oc2c1CC=C(C)C.[Br-] | 16 | 8 | 16 | 16 | 16 | 75.3 | 1200 | 128 | 8 | 8 | 8 | 8 | 16 | 16
17 | CCNC(=O)C[N+](C)(C)CCCCCOc1ccc2ccc(=O)oc2c1CC=C(C)C.[Br-] | 64 | 32 | 64 | 64 | 32 | > 20 | > 1280 | > 128 | 64 | 64 | 32 | 32 | 64 | 64
18 | CCNC(=O)C[N+](C)(C)CCCOc1ccc2ccc(=O)oc2c1CC=C(C)C.[Br-] | 128 | 128 | 128 | 128 | 128 | > 5 | > 640 | > 128 | 128 | 128 | 128 | 128 | 128 | 128
19 | CCN(CC)C(=O)C[N+](C)(C)CCCCCOc1ccc2ccc(=O)oc2c1CC=C(C)C.[Br-] | 32 | 32 | 32 | 32 | 32 | 40 | > 1280 | 128 | 32 | 32 | 32 | 32 | 32 | 64
20 | CCCCN(CCCC)C(=O)C[N+](C)(C)CCCCOc1ccc2ccc(=O)oc2c1CC=C(C)C.[Br-] | 2 | 2 | 4 | 4 | 4 | > 640 | > 1280 | 64 | 2 | 2 | 4 | 2 | 4 | 8
21 | CC(C)=CCc1c(OCCCC[N+](C)(C)CC(=O)N(CC(C)C)CC(C)C)ccc2ccc(=O)oc12.[Br-] | 4 | 2 | 1 | 2 | 2 | > 320 | > 1280 | 128 | 2 | 2 | 2 | 4 | 4 | 4
